According to PMC7216583 (Parasites & Vectors, 2020):
Counter-ions that a name gives are not always drawn. Like-named read-outs stand apart in the source and are kept apart here.

Tests used:
PARP1 = molecular target: PARP1; set-up: method as in S-inhibitor; settings: ref S-inhibitor; cited from earlier work
[1] = tested on: Toxoplasma gondii RH-2F tachyzoites; assay: microbe, parasite or virus in culture; settings: 72 h
EGFR [2] = tested on: EGFR; set-up: method as in S-inhibitor; settings: ref S-inhibitor; cited from earlier work
ErbB4 = tested on: ErbB4; set-up: method as in S-inhibitor; settings: ref S-inhibitor; cited from earlier work
MEK1/2 = tested on: MEK1/2; set-up: method as in S-inhibitor; settings: ref S-inhibitor; cited from earlier work
HER2/ErbB2 = tested on: HER2/ErbB2; set-up: method as in S-inhibitor; settings: ref S-inhibitor; cited from earlier work
ErbB3 = tested on: ErbB3; set-up: method as in S-inhibitor; settings: ref S-inhibitor; cited from earlier work
FGFR1 = tested on: FGFR1; set-up: method as in S-inhibitor; settings: ref S-inhibitor; cited from earlier work
FGFR3 = tested on: FGFR3; set-up: method as in S-inhibitor; settings: ref S-inhibitor; cited from earlier work
CDK2/cyclin E = tested on: CDK2/cyclin E; set-up: method as in S-inhibitor; settings: ref S-inhibitor; cited from earlier work
CDK1/cyclin B = tested on: CDK1/cyclin B; set-up: method as in S-inhibitor; settings: ref S-inhibitor; cited from earlier work
ERβ = tested on: ERβ; set-up: method as in S-inhibitor; settings: ref S-inhibitor; read-out: IC50, ERβ binding; cited from earlier work
ERα = settings: read-out: IC50, ERα binding; ref S-inhibitor; cited from earlier work
5-HT2 receptor = molecular target: 5-HT2 receptor; set-up: method as in S-inhibitor; settings: ref S-inhibitor; read-out: Ki, serotonin 5-HT2; cited from earlier work
in vitro = settings: human, Host viability (%) mean
dopamine D2 = molecular target: dopamine D2; set-up: method as in S-inhibitor; settings: ref S-inhibitor; cited from earlier work
EGFR [3] = tested on: EGFR; set-up: method as in library vendor description; settings: ref library vendor description; cited from earlier work
ErbB2 = tested on: ErbB2; set-up: method as in library vendor description; settings: ref library vendor description; cited from earlier work
[4] = molecular target: serotonin-norepinephrine reuptake; settings: read-out: Ki, serotonin-norepinephrine reuptake inhibitor; ref S-inhibitor; cited from earlier work
Flt4 = tested on: Flt4; set-up: method as in S-inhibitor; settings: ref S-inhibitor; cited from earlier work
HIV-1 IIIB = tested on: HIV-1 IIIB; set-up: method as in S-inhibitor; settings: ref S-inhibitor; cited from earlier work
HIV-2 EHO = tested on: HIV-2 EHO; set-up: method as in S-inhibitor; settings: ref S-inhibitor; cited from earlier work
HIV-2 ROD = tested on: HIV-2 ROD; set-up: method as in S-inhibitor; settings: ref S-inhibitor; cited from earlier work
If = tested on: If; set-up: method as in S-inhibitor; settings: ref S-inhibitor; cited from earlier work
smoothened [5] = tested on: smoothened; set-up: method as in S-inhibitor; settings: mouse; ref S-inhibitor; cited from earlier work
smoothened [6] = tested on: smoothened; set-up: method as in S-inhibitor; settings: human; ref S-inhibitor; cited from earlier work
glucokinase (GK) = molecular target: glucokinase (GK); set-up: method as in S-inhibitor; settings: ref S-inhibitor; read-out: EC50, glucokinase activation; cited from earlier work
V617F mutant JAK2 = tested on: V617F mutant JAK2; set-up: method as in S-inhibitor; settings: in Ba/F3 cells; ref S-inhibitor; cited from earlier work
Src = tested on: Src; set-up: method as in S-inhibitor; settings: ref S-inhibitor; cited from earlier work
VEGFR2 = tested on: VEGFR2; set-up: method as in S-inhibitor; settings: ref S-inhibitor; cited from earlier work
Abl = tested on: Abl; set-up: method as in S-inhibitor; settings: ref S-inhibitor; read-out: IC50, c-Abl; cited from earlier work
EphB4 = tested on: EphB4; set-up: method as in S-inhibitor; settings: ref S-inhibitor; cited from earlier work
c-Raf = tested on: c-Raf; set-up: method as in S-inhibitor; settings: ref S-inhibitor; cited from earlier work
FAK = settings: read-out: IC50, FAK; ref S-inhibitor; cited from earlier work
D4 receptor = settings: read-out: Ki, D4 receptor; ref S-inhibitor; cited from earlier work
D3 receptor = settings: read-out: Ki, D3 receptor; ref S-inhibitor; cited from earlier work
D2L receptor = settings: read-out: Ki, D2L receptor; ref S-inhibitor; cited from earlier work
D2S receptor = settings: read-out: Ki, D2S receptor; ref S-inhibitor; cited from earlier work
[7] = tested on: voltage-gated sodium channels; set-up: method as in S-inhibitor; settings: ref S-inhibitor; cited from earlier work
S217Q PFV IN = tested on: S217Q PFV IN; set-up: method as in S-inhibitor; settings: ref S-inhibitor; cited from earlier work
WT PFV IN = tested on: WT PFV IN; set-up: method as in S-inhibitor; settings: ref S-inhibitor; cited from earlier work
PDE4 = tested on: PDE4; set-up: method as in S-inhibitor; settings: ref S-inhibitor; cited from earlier work
MV522 = tested on: MV522; set-up: method as in S-inhibitor; settings: ref S-inhibitor; read-out: IC50, MV522 cell line; cited from earlier work
P388 = tested on: P388; set-up: method as in S-inhibitor; settings: ref S-inhibitor; read-out: IC50, P388 cell line; cited from earlier work
MX1 = tested on: MX1; set-up: method as in S-inhibitor; settings: ref S-inhibitor; read-out: IC50, MX1 cell line; cited from earlier work
Colo205 = tested on: Colo205; set-up: method as in S-inhibitor; settings: ref S-inhibitor; read-out: IC50, Colo205 cell line; cited from earlier work
SKOV3 = tested on: SKOV3; set-up: method as in S-inhibitor; settings: ref S-inhibitor; read-out: IC50, SKOV3 cell line; cited from earlier work
ALK4 = tested on: ALK4; set-up: method as in S-inhibitor; settings: ref S-inhibitor; cited from earlier work
ALK5 = settings: read-out: IC50, ALK5; ref S-inhibitor; cited from earlier work
(Na,K)-ATPase = molecular target: (Na,K)-ATPase; set-up: method as in S-inhibitor; settings: one value printed for both enzymes; ref S-inhibitor; cited from earlier work
alkaline phosphatase = settings: read-out: IC50, alkaline phosphatase; one value printed for both enzymes; ref S-inhibitor; cited from earlier work
[8] = tested on: Toxoplasma gondii RH-2F tachyzoites; settings: preliminary screen, mean
[9] = read-out: Parasite inhibition (%) mean, preliminary screen, mean
[10] = read-out: Parasite inhibition (%) mean

CN(C)Cc1ccc(-c2nc3cccc4c3n2CCNC4=O)cc1 [AG14361]
Ki (PARP1): < 5 nM | inhibition of growth at 5 µM [1, 9]: 28.9%

C=CC(=O)Nc1ccc2ncnc(Nc3ccc(OCc4cccc(F)c4)c(Cl)c3)c2c1 [AST-1306]
IC50 (EGFR [2]): 0.5 nM | inhibition of growth at 5 µM [1, 9]: -33.7% | IC50 (ErbB4): 0.8 nM

Cc1cc(C(=O)NOCCO)c(Nc2ccc(I)cc2F)n(C)c1=O [AZD8330]
inhibition of growth at 5 µM [1, 9]: -18.8% | IC50 (MEK1/2): 7 nM

CNC(=O)CN1CCC(Oc2cc3c(Nc4cccc(Cl)c4F)ncnc3cc2OC)CC1 [AZD8931]
IC50 (HER2/ErbB2): 3 nM | IC50 (ErbB3): 4 nM | inhibition of growth at 5 µM [1, 9]: -20%

CCN1CCN(c2ccc(Nc3cc(N(C)C(=O)Nc4c(Cl)c(OC)cc(OC)c4Cl)ncn3)cc2)CC1 [BGJ398 (NVP-BGJ398)]
IC50 (FGFR1): 0.9 nM | inhibition of growth at 5 µM [1, 9]: -8.9% | IC50 (FGFR3): 1 nM

CCCCOc1c(C(=O)c2c(F)cc(C)cc2F)c[nH]c2nncc1-2 [BMS-265246]
IC50 (CDK2/cyclin E): 9 nM | inhibition of growth at 5 µM [1, 9]: 7.3% | IC50 (CDK1/cyclin B): 6 nM

Cc1c(-c2ccc(O)cc2)n(Cc2ccc(OCCN3CCCCCC3)cc2)c2ccc(O)cc12 [Bazedoxifene HCl]
IC50 (ERβ): […] | inhibition of growth at 5 µM [1, 9]: -12.8% | IC50 (ERα): […]

CCN1CCN(c2cc(-c3ccc(F)cc3)c3c(n2)CCCCCC3)CC1 [Blonanserin (Lonasen)]
Ki (5-HT2 receptor): 3.98 nM | viability at 72 h (in vitro): 88.3% | inhibition of growth at 5 µM [1, 9]: 82.1% | Ki (dopamine D2): 14.8 nM

C=CC(=O)Nc1cc2c(Nc3ccc(F)c(Cl)c3)ncnc2cc1OCCCN1CCOCC1 [CI-1033 (Canertinib)]
IC50 (EGFR [3]): […] | IC50 (ErbB2): […] | inhibition of growth at 5 µM [1, 9]: -5.8%

CNCC[C@H](Oc1cccc2ccccc12)c1cccs1 [Duloxetine HCl (Cymbalta)]
Ki [4]: 4.6 nM | inhibition of growth at 5 µM [1, 10]: 30.9%

Cc1cc(Nc2cc(N3CCN(C)CC3)nc(/C=C/c3ccccc3)n2)n[nH]1 [ENMD-2076 L-(+)-Tartaric acid]
IC50 (Flt4): 15.9 nM | viability at 72 h (in vitro; preliminary screen, mean): 35.5%

COc1cc2c(cc1Cc1cccc(Cl)c1F)c(=O)c(C(=O)O)cn2[C@H](CO)C(C)C [Elvitegravir (GS-9137)]
IC50 (HIV-1 IIIB): 0.7 nM | IC50 (HIV-2 EHO): 2.8 nM | IC50 (HIV-2 ROD): 1.4 nM | inhibition of growth at 5 µM [1, 9]: 0.7%

COc1cc2c(cc1OC)CC(=O)N(CCCN(C)C[C@@H]1Cc3cc(OC)c(OC)cc31)CC2 [Ivabradine HCl (Procoralan)]
IC50 (If): 2900 nM | inhibition of growth at 5 µM [1, 9]: 0.6%

Cc1c(C(=O)Nc2ccc(N3C[C@@H](C)O[C@@H](C)C3)nc2)cccc1-c1ccc(OC(F)(F)F)cc1 [LDE225 (NVP-LDE225, Erismodegib)]
IC50 (smoothened [5]): 1.3 nM | inhibition of growth at 5 µM [1, 9]: -3.8% | IC50 (smoothened [6]): 2.5 nM

O=C(Nc1ncc(SCCN2CCCC2)s1)[C@]1(c2ccc(S(=O)(=O)C3CC3)cc2)C[C@@H]1C1CCCCC1 [LY2608204]
EC50 (glucokinase (GK)): 42 nM | inhibition of growth at 5 µM [1, 10]: -25.9%

Cc1cc(Nc2cc(CN3CCOCC3)c3nc(C)c(Cc4ccc(Cl)cc4F)n3n2)n[nH]1 [LY2784544]
inhibition of growth at 5 µM [1, 9]: 11.1% | IC50 (V617F mutant JAK2): 55 nM

Cc1ccc(C(=O)Nc2cccc(C(F)(F)F)c2)cc1Nc1nc(-c2cccnc2)nc2c1cnn2C [NVP-BHG712]
IC50 (Src): 1270 nM | ED50, VEGFR2 (VEGFR2): 4200 nM | IC50 (Abl): 1670 nM | ED50, EphB4 (EphB4): 25 nM | IC50 (c-Raf): 395 nM | inhibition of growth at 5 µM [1, 9]: -3.3%

CS(=O)(=O)c1cccc(CNc2nc(Nc3ccc4c(c3)CCC(=O)N4)ncc2C(F)(F)F)c1 [PF 573228]
IC50 (FAK): 4 nM | inhibition of growth at 5 µM [1, 9]: 5%

CCCN[C@H]1CCc2nc(N)sc2C1 [Pramipexole 2HCl monohydrate]
Ki (D4 receptor): 5.1 nM | Ki (D3 receptor): 0.5 nM | Ki (D2L receptor): 2.2 nM | inhibition of growth at 5 µM [1, 10]: -9.5% | Ki (D2S receptor): […]

CCCOc1ccc(C(=O)OCCN(CC)CC)cc1N [Proparacaine HCl]
ED50, voltage-gated sodium channels [7]: Proparacaine HCl is a voltage-gated sodium channels antagonist with ED50 of 3.4 mM. | inhibition of growth at 5 µM [1, 9]: 2.4%

Cc1nnc(C(=O)NC(C)(C)c2nc(C(=O)NCc3ccc(F)cc3)c(O)c(=O)n2C)o1 [Raltegravir (MK-0518)]
IC50 (S217Q PFV IN): 40 nM | IC50 (WT PFV IN): 90 nM | inhibition of growth at 5 µM [1, 9]: 0.8%

O=C(Nc1c(Cl)cncc1Cl)c1ccc(OC(F)F)c(OCC2CC2)c1 [Roflumilast (Daxas)]
inhibition of growth at 5 µM [1, 9]: -0.2% | IC50 (PDE4): 0.2 to 4.3 nM

Cc1ccc(C(=O)N(CCCN)[C@@H](c2oc3cc(Cl)ccc3c(=O)c2Cc2ccccc2)C(C)C)cc1 [SB 743921]
IC50 (MV522): 1.7 nM | IC50 (P388): 14.4 nM | IC50 (MX1): 0.06 nM | IC50 (Colo205): 0.07 nM | inhibition of growth at 5 µM [1, 9]: 0.5% | IC50 (SKOV3): 0.2 nM

Cc1cccc(-c2[nH]c(C(C)(C)C)nc2-c2ccc3c(c2)OCO3)n1 [SB-505124]
IC50 (ALK4): 129 nM | inhibition of growth at 5 µM [1, 9]: -14.8% | IC50 (ALK5): 47 nM

[Na+].[Na+].[Na+].[O]=[V]([O-])([O-])[O-] [Sodium orthovanadate]
IC50 ((Na,K)-ATPase): 10000 nM | IC50 (alkaline phosphatase): 10000 nM | Parasite inhibition (%) mean [8]: 31.8%
